US20250163104A1, “MACROCYCLIC IMMUNOMODULATORS” (priority 2021, published 2025)
Where a SMILES comes first, the peptide text is derived from it. Bridges are numbered along the chain shown (N, C = ends). [ ]: non-standard residue; d: D form. The star is where a group is joined. ξ: configuration not given here. Bip(4'-COOH) = N[C@@H](Cc1ccc(-c2ccc(C(=O)O)cc2)cc1)C(=O)O; Ala(morpholin-4-yl) = N[C@@H](CN1CCOCC1)C(=O)O; Phe(4-COOH) = N[C@@H](Cc1ccc(C(=O)O)cc1)C(=O)O; Bip = N[C@@H](Cc1ccc(-c2ccccc2)cc1)C(=O)O; Phe(4-CN) = N#Cc1ccc(C[C@H](N)C(=O)O)cc1; Phe(3-Me) = Cc1cccc(C[C@H](N)C(=O)O)c1; Val(3-OH) = CC(C)(O)[C@H](N)C(=O)O; 4Pal = N[C@@H](Cc1ccncc1)C(=O)O; Cha = N[C@@H](CC1CCCCC1)C(=O)O; Cit = NC(=O)NCCC[C@H](N)C(=O)O; Thr(3ξ) = CC(O)[C@H](N)C(=O)O; Carboxymethyl = O=C(O)C*; Orn = NCCC[C@H](N)C(=O)O; Pra = C#CC[C@H](N)C(=O)O; Dab = NCC[C@H](N)C(=O)O; Dap = NC[C@H](N)C(=O)O; Propargyl = C#CC*

Target: T1, human PD-1 / PD-L1-Ig binding on Jurkat cell line over-expressing human PD-1 (Jurkat-PD-1) (Homo sapiens, UniProt Q15116)
T1 construct: expressed in transfected cells; host or cells: Jurkat
T1 sequence (Q15116 25-288): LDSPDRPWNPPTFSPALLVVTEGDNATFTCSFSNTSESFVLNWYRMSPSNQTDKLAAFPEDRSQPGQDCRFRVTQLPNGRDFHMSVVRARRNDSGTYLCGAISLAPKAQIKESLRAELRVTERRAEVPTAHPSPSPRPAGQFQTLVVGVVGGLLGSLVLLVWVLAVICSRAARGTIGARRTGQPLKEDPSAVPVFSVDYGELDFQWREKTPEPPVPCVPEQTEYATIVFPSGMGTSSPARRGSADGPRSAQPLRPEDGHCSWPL
Assay: Jurkat-PD-1 Cell Binding High-Content Screening Assay (CBA)
Assay type: cell-based
Conditions: Jurkat HPD1_PDL1 IC50, Jurkat-PD-1 cells, PE-labeled PD-L1-Ig 20 nM final
How it was run: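 Jurkat-hPD-1 cells in DMEM with 10% fetal calf serum receive test compound and are held at 37° C for 2 h. PE-labeled PD-L1-Ig is added at 20 nM final and left for 1 hour. Cells are then fixed and Hoechst-stained, and binding is measured by imaging.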

| Structure (SMILES) | IC50 [nM] |
| --- | --- |
| Cc1cccc(C[C@@H]2NC(=O)[C@H](CC(=O)O)NC(=O)[C@H](Cc3ccc(C(=O)O)cc3)NC(=O)[C@H](Cc3ccncc3)NC(=O)CSC[C@@H](C(=O)N[C@@H](C)C(N)=O)NC(=O)[C@H]([C@@H](C)O)NC(=O)[C@H](C(C)C)NC(=O)[C@H](CC3CCCCC3)NC(=O)[C@H](Cc3c[nH]cn3)NC(=O)[C@@H](CC(C)C)NC(=O)[C@H](CCCN)NC(=O)[C@H](C(C)C)NC(=O)[C@H](Cc3ccc(-c4ccccc4)cc3)NC(=O)[C@H](C(C)C)NC2=O)c1 [Compound 1581] | 22.4 |

Same assay, conditions: Jurkat-PD-1 cells, PE-labeled PD-L1-Ig 20 nM final; read-out: Jurkat HPD1_PDL1 IC50

| Structure (SMILES) | IC50 [nM] |
| --- | --- |
| CC(C)C[C@H]1NC(=O)[C@H](CCCN)NC(=O)[C@H](CCCCN)NC(=O)[C@H](Cc2ccc(-c3ccccc3)cc2)NC(=O)[C@H](C(C)C)NC(=O)[C@H](Cc2c[nH]c3ccccc23)NC(=O)[C@H](CC(=O)O)NC(=O)[C@H](Cc2ccncc2)NC(=O)[C@H](CN)NC(=O)CSC[C@@H](C(=O)N[C@@H](CCCN)C(N)=O)NC(=O)[C@H](CCCN)NC(=O)[C@H](C(C)C)NC(=O)[C@H](CC2CCCCC2)NC(=O)[C@H](CCN)NC1=O [Compound 2253] ({CH2CO}-[Dap][4Pal]DWV[Bip]K[Orn][dL][Dab][Cha]V[Orn]C[Orn]-NH2; thioether N-14) | 138 |
| C#CCOc1ccc(C[C@@H]2NC(=O)[C@H](Cc3cccc(C)c3)NC(=O)[C@H](CC(=O)O)NC(=O)[C@H](Cc3ccc(C(=O)O)cc3)NC(=O)[C@H](CN)NC(=O)CSC[C@@H](C(=O)N[C@@H](CCN)C(N)=O)NC(=O)[C@H]([C@@H](C)O)NC(=O)[C@H](C(C)C)NC(=O)[C@H](CC3CCCCC3)NC(=O)[C@H](CCN)NC(=O)[C@@H](CC(C)C)NC(=O)[C@H](CCCN)NC(=O)[C@H](C(C)C)NC(=O)[C@H](Cc3ccc(-c4ccccc4)cc3)NC2=O)cc1 [Compound 2022] ({CH2CO}-[Dap][Phe(4-COOH)]D[Phe(3-Me)]Y(Propargyl)[Bip]V[Orn][dL][Dab][Cha]VTC[Dab]-NH2; thioether N-14) | 6.9 |
| CC(C)C[C@@H]1NC(=O)[C@H](Cc2c[nH]c3ccccc23)NC(=O)[C@H](CC(=O)O)NC(=O)[C@H](Cc2ccc(O)cc2)NC(=O)[C@H](Cc2ccccc2)NC(=O)CSC[C@@H](C(=O)NCC(N)=O)NC(=O)[C@H](CO)NC(=O)[C@H](C(C)C)NC(=O)[C@H](CC(C)C)NC(=O)[C@H](CC(N)=O)NC(=O)[C@@H](CC(C)C)NC(=O)[C@H](CN)NC(=O)[C@H](C(C)C)NC(=O)[C@H](Cc2ccc(-c3ccccc3)cc2)NC1=O [Compound 1274] ({CH2CO}-FYDWL[Bip]V[Dap][dL]NLVSCG-NH2; thioether N-14) | 38.4 |
| CC(C)C[C@@H]1NC(=O)[C@H](Cc2c[nH]c3ccccc23)NC(=O)[C@H](CC(=O)O)NC(=O)[C@H](Cc2ccc(O)cc2)NC(=O)[C@H](Cc2ccccc2)NC(=O)CSC[C@@H](C(=O)N[C@@H](C)C(N)=O)NC(=O)[C@H]([C@@H](C)O)NC(=O)[C@H](C(C)C)NC(=O)[C@H](CC(C)C)NC(=O)[C@H](CCN)NC(=O)[C@@H](CC(C)C)NC(=O)[C@H](CCCN)NC(=O)[C@H](C(C)C)NC(=O)[C@H](Cc2ccc(-c3ccccc3)cc2)NC1=O [Compound 1072] ({CH2CO}-FYDWL[Bip]V[Orn][dL][Dab]LVTCA-NH2; thioether N-14) | 27.1 |
| C#CC[C@H](NC(=O)CNC(=O)[C@@H]1CSCC(=O)N[C@@H](CN)C(=O)N[C@@H](Cc2ccc(OCC(=O)O)cc2)C(=O)N[C@@H](CC(=O)O)C(=O)N[C@@H](Cc2cccc(C)c2)C(=O)N[C@@H](Cc2ccc(OCC(=O)O)cc2)C(=O)N[C@@H](Cc2ccc(-c3ccccc3)cc2)C(=O)N[C@@H](Cc2ccc(OCC(=O)O)cc2)C(=O)N[C@@H](CCCN)C(=O)N[C@H](CC(C)C)C(=O)N[C@@H](CCN)C(=O)N[C@@H](CC2CCCCC2)C(=O)N[C@@H](C(C)(C)O)C(=O)N[C@@H](CO)C(=O)N1)C(N)=O [Compound 2321] ({CH2CO}-[Dap]Y(Carboxymethyl)D[Phe(3-Me)]Y(Carboxymethyl)[Bip]Y(Carboxymethyl)[Orn][dL][Dab][Cha][Val(3-OH)]SCG[Pra]-NH2; thioether N-14) | 19.3 |
| CC(C)C[C@@H]1NC(=O)[C@H](CCN)NC(=O)[C@@H](CC(C)C)NC(=O)[C@H](CCCCN)NC(=O)[C@H](C(C)C)NC(=O)[C@H](Cc2ccc(-c3ccccc3)cc2)NC(=O)[C@H](C(C)C)NC(=O)[C@H](Cc2c[nH]c3ccccc23)NC(=O)[C@H](CC(N)=O)NC(=O)[C@H](Cc2ccc(O)cc2)NC(=O)[C@H](CC(N)=O)NC(=O)CSC[C@@H](C(=O)NCC(N)=O)NC(=O)[C@H](CO)NC(=O)[C@H](C(C)C)NC1=O [Compound 1082] ({CH2CO}-NYNWV[Bip]VK[dL][Dab]LVSCG-NH2; thioether N-14) | 41.5 |

More lines, now with the values ahead:

| IC50 [nM] | Structure (SMILES) |
| --- | --- |
| 6.4 | CC[C@H](C)[C@@H]1NC(=O)[C@H](Cc2ccc(-c3ccccc3)cc2)NC(=O)[C@H](CC(C)C)NC(=O)[C@H](Cc2c[nH]c3ccccc23)NC(=O)[C@H](CC(=O)O)NC(=O)[C@H](Cc2ccc(OCC(=O)O)cc2)NC(=O)[C@H](CN)NC(=O)CSC[C@@H](C(=O)N[C@@H](C)C(N)=O)NC(=O)[C@H]([C@@H](C)O)NC(=O)[C@H](C(C)C)NC(=O)[C@H](CC(C)C)NC(=O)[C@H](CCN)NC(=O)[C@@H](CC(C)C)NC(=O)[C@H](CCCN)NC1=O [Compound 1370] ({CH2CO}-[Dap]Y(Carboxymethyl)DWL[Bip]I[Orn][dL][Dab]LVTCA-NH2; thioether N-14) |
| 27.4 | CC(C)C[C@H]1NC(=O)[C@H](CCCN)NC(=O)[C@H](C(C)C)NC(=O)[C@H](Cc2ccc(-c3ccccc3)cc2)NC(=O)[C@H](C(C)C)NC(=O)[C@H](Cc2c[nH]c3ccccc23)NC(=O)[C@H](CC(=O)O)NC(=O)[C@H](Cc2ccc(C(=O)O)cc2)NC(=O)[C@H](Cc2ccc(OCC(=O)O)cc2)NC(=O)CSC[C@@H](C(=O)N[C@@H](C)C(N)=O)NC(=O)[C@H]([C@@H](C)O)NC(=O)[C@H](C(C)C)NC(=O)[C@H](Cc2ccccc2)NC(=O)[C@H](CCN)NC1=O [Compound 1662] ({CH2CO}-Y(Carboxymethyl)[Phe(4-COOH)]DWV[Bip]V[Orn][dL][Dab]FVTCA-NH2; thioether N-14) |
| 8.3 | CC(C)C[C@H]1NC(=O)[C@H](CCCN)NC(=O)[C@H](CCCNC(N)=O)NC(=O)[C@H](Cc2ccc(-c3ccccc3)cc2)NC(=O)[C@H](C(C)C)NC(=O)[C@H](Cc2c[nH]c3ccccc23)NC(=O)[C@H](CC(=O)O)NC(=O)[C@H](Cc2ccc(-c3ccc(C(=O)O)cc3)cc2)NC(=O)[C@H](CN)NC(=O)CSC[C@@H](C(=O)N[C@@H](C)C(N)=O)NC(=O)[C@H]([C@@H](C)O)NC(=O)[C@H](C(C)C)NC(=O)[C@H](CC2CCCCC2)NC(=O)[C@H](CCN)NC1=O [Compound 2089] ({CH2CO}-[Dap][Bip(4'-COOH)]DWV[Bip][Cit][Orn][dL][Dab][Cha]VTCA-NH2; thioether N-14) |
| 4.7 | CC(C)C[C@H]1NC(=O)[C@H](CCCN)NC(=O)[C@H](C(C)C)NC(=O)[C@H](Cc2ccc(-c3ccccc3)cc2)NC(=O)[C@H](C(C)C)NC(=O)[C@H](Cc2c[nH]c3ccccc23)NC(=O)[C@H](CC(=O)O)NC(=O)[C@H](Cc2ccc(OCC(=O)O)cc2)NC(=O)[C@H](CN)NC(=O)CSC[C@@H](C(=O)N[C@@H](C)C(N)=O)NC(=O)[C@H](CCCCN)NC(=O)[C@H](C(C)C)NC(=O)[C@H](CC2CCCCC2)NC(=O)[C@H](CCN)NC1=O [Compound 1744] ({CH2CO}-[Dap]Y(Carboxymethyl)DWV[Bip]V[Orn][dL][Dab][Cha]VKCA-NH2; thioether N-14) |
| 28.1 | CC(C)C[C@H]1NC(=O)[C@H](CCCN)NC(=O)[C@H](CCC(=O)O)NC(=O)[C@H](Cc2ccc(-c3ccccc3)cc2)NC(=O)[C@H](C(C)C)NC(=O)[C@H](Cc2c[nH]c3ccccc23)NC(=O)[C@H](CC(=O)O)NC(=O)[C@H](Cc2ccc(C#N)cc2)NC(=O)[C@H](CC(N)=O)NC(=O)CSC[C@@H](C(=O)N[C@@H](C)C(N)=O)NC(=O)[C@H]([C@@H](C)O)NC(=O)[C@H](C(C)C)NC(=O)[C@H](CC2CCCCC2)NC(=O)[C@H](CCN)NC1=O [Compound 2185] ({CH2CO}-N[Phe(4-CN)]DWV[Bip]E[Orn][dL][Dab][Cha]VTCA-NH2; thioether N-14) |
| 2.1 | C#CC[C@H](NC(=O)[C@H](CCN)NC(=O)[C@@H]1CSCC(=O)N[C@@H](CN2CCOCC2)C(=O)N[C@@H](Cc2ccc(OCC(=O)O)cc2)C(=O)N[C@@H](CC(=O)O)C(=O)N[C@@H](Cc2cccc(C)c2)C(=O)N[C@@H](Cc2ccc(OCC(=O)O)cc2)C(=O)N[C@@H](Cc2ccc(-c3ccccc3)cc2)C(=O)N[C@@H](Cc2ccc(OCC(=O)O)cc2)C(=O)N[C@@H](CCCN)C(=O)N[C@H](CC(C)C)C(=O)N[C@@H](CCN)C(=O)N[C@@H](CC2CCCCC2)C(=O)N[C@@H](C(C)(C)O)C(=O)N[C@@H]([C@@H](C)O)C(=O)N1)C(N)=O [Compound 1859] ({CH2CO}-[Ala(morpholin-4-yl)]Y(Carboxymethyl)D[Phe(3-Me)]Y(Carboxymethyl)[Bip]Y(Carboxymethyl)[Orn][dL][Dab][Cha][Val(3-OH)]TC[Dab][Pra]-NH2; thioether N-14) |

Same assay, conditions: read-out: Jurkat HPD1_PDL1 IC50; Jurkat-PD-1 cells, PE-labeled PD-L1-Ig 20 nM final

| Structure (SMILES) | IC50 [nM] |
| --- | --- |
| CC(=O)NCC[C@@H]1NC(=O)[C@H](Cc2ccc(-c3ccccc3)cc2)NC(=O)[C@H](C(C)C)NC(=O)[C@H](Cc2c[nH]c3ccccc23)NC(=O)[C@H](CC(=O)O)NC(=O)[C@H](Cc2ccc(OCC(=O)O)cc2)NC(=O)[C@H](C(C)O)NC(=O)CSC[C@@H](C(N)=O)NC(=O)[C@H](C(C)O)NC(=O)[C@H](C(C)C)NC(=O)[C@H](CC2CCCCC2)NC(=O)[C@H](CCN)NC(=O)[C@@H](CC(C)C)NC(=O)[C@H](CCCN)NC1=O (stereo partly drawn) [Compound 2606] ({CH2CO}-[Thr(3ξ)]Y(Carboxymethyl)DWV[Bip][Dab](Ac)[Orn][dL][Dab][Cha]V[Thr(3ξ)]C-NH2; thioether N-14) | 76.4 |
